# Reference: the supplement of paper PMC10331698
# ± gives the standard deviation of the averaged measurements.
# How the values were obtained:
# Assay in all cases: level (log10 ratio to DMSO vehicle control); higher = higher biomarker level / cell amount than vehicle control
# Conditions in all cases: in DMSO
# [1] = compound: O=S(=O)(O)CCC(F)(F)C(F)(F)C(F)(F)C(F)(F)C(F)(F)C(F)(F)F [6:2 Fluorotelomer sulfonic acid]
# Method: (§1)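 BioMAP Diversity Plus panel of 12 human primary cell co-culture systems (3C, 4H, LPS, SAg, BT, BF4T, BE3C, CASM3C, HDF3CGF, KF3CT, MyoF, Mphg). Compounds were added 1 h before stimulation and left for 24 h (MyoF 48 h; BT 72 h for soluble read-outs or 6 d for IgG). Biomarkers were read by ELISA, cytotoxicity by SRB, PBMC viability and proliferation by Alamar Blue. Each well value was divided by the mean of 8 DMSO control wells on the same plate and log10 transformed; duplicate blinded samples were tested at 4 concentrations.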
# [2] = compound: O=C(O)C=CC(F)(C(F)(F)F)C(F)(F)F [3-(Perfluoroisopropyl)-2-propenoic acid]
# Method: as §1
# [3] = compound: NC(=O)C(F)(F)C(F)(F)C(F)(F)C(F)(F)F [Nonafluoropentanamide]
# Method: as §1
# [4] = compound: OCC(F)(F)C(F)(F)C(F)(F)CO [Hexafluoroamylene glycol]
# Method: as §1
# [5] = compound: FC(F)(F)C(F)(F)C(F)(F)C(F)(F)C(F)(F)C(F)(F)CC1CO1 [3-(Perfluorohexyl)-1,2-epoxypropane]
# Method: as §1
# [6] = compound: COC(=O)C(F)(F)C(F)(F)OC(F)(C(F)(F)F)C(F)(F)OC(F)=C(F)F [Methyl perfluoro(3-(1-ethenyloxypropan-2-yloxy)propanoate)]
# Method: as §1
# [7] = compound: O=S(=O)(F)C(F)(F)C(F)(F)C(F)(F)C(F)(F)C(F)(F)C(F)(F)C(F)(F)C(F)(F)F [Perfluorooctanesulfonyl fluoride]
# Method: as §1
Test System,level (log10) ([1]; 6700 nM),level (log10) ([1]; 20000 nM),level (log10) ([1]; 60000 nM),level (log10) ([2]; 6700 nM),level (log10) ([2]; 20000 nM),level (log10) ([2]; 60000 nM),level (log10) ([3]; 6700 nM),level (log10) ([3]; 20000 nM),level (log10) ([3]; 60000 nM),level (log10) ([4]; 6700 nM),level (log10) ([4]; 20000 nM),level (log10) ([4]; 60000 nM),level (log10) ([5]; 6700 nM),level (log10) ([5]; 20000 nM),level (log10) ([5]; 60000 nM),level (log10) ([6]; 6700 nM),level (log10) ([6]; 20000 nM),level (log10) ([7]; 6700 nM),level (log10) ([7]; 20000 nM),level (log10) ([7]; 60000 nM)
BE3C:CD87/uPAR,0.003 ± 0.0014,-0.0065 ± 0.011,0.0235 ± 0.018,0.005 ± 0.0085,0.002 ± 0.045,0.052 ± 0.038,0.012,0.0185 ± 0.015,0.0115 ± 0.018,-0.0205 ± 0.011,-0.016 ± 0.037,0.0025 ± 0.022,0.0085 ± 0.029,0.032 ± 0.037,0.06 ± 0.0028,0.038 ± 0.038,0.05 ± 0.041,-0.0005 ± 0.011,0.0155 ± 0.00071,0.0375 ± 0.0064
BE3C:CXCL8/IL-8,0.021 ± 0.031,-0.001 ± 0.021,0 ± 0.021,-0.0015 ± 0.035,0.003 ± 0.0057,0.0545 ± 0.059,0.0235 ± 0.019,0.004 ± 0.05,0.0245 ± 0.066,-0.001 ± 0.031,-0.003 ± 0.025,0.013 ± 0.034,0.0215 ± 0.04,0.01 ± 0.031,0.0605 ± 0.015,0.0495 ± 0.0021,0.09 ± 0.013,0.0175 ± 0.0021,0.0295 ± 0.011,0.0615 ± 0.029
BE3C:CXCL10/IP-10,0.0015 ± 0.0021,-0.0095 ± 0.0078,-0.0125 ± 0.018,0.0055 ± 0.0035,0.004 ± 0.0099,0.009 ± 0.0014,0.0145 ± 0.021,-0.005 ± 0.038,-0.0095 ± 0.015,-0.009 ± 0.014,-0.0115 ± 0.011,-0.007 ± 0.02,0.001 ± 0.0057,0.001 ± 0.017,0.018 ± 0.0014,-0.02 ± 0.013,-0.054 ± 0.013,0.0095 ± 0.035,0.0115 ± 0.025,0.008 ± 0.03
BE3C:CXCL11/I-TAC,0.037 ± 0.028,0.0585 ± 0.00071,0.067 ± 0.018,-0.0175 ± 0.0078,-0.009 ± 0.0057,0.005 ± 0.011,0.012 ± 0.0099,0.01 ± 0.017,0.003 ± 0.027,0.002 ± 0.021,0.013 ± 0.045,0.035 ± 0.018,-0.0115 ± 0.011,-0.02 ± 0.011,-0.009 ± 0.014,-0.038 ± 0.024,-0.192 ± 0.025,0.005 ± 0.0014,-0.0005 ± 0.012,-0.006 ± 0.011
BE3C:EGFR,-0.0075 ± 0.00071,-0.027 ± 0.0085,-0.0095 ± 0.0064,0.0005 ± 0.016,0.0085 ± 0.00071,0.004 ± 0.0014,0.0025 ± 0.011,-0.0425 ± 0.029,-0.0175 ± 0.011,0.0035 ± 0.005,-0.0115 ± 0.0078,0.009 ± 0.0071,-0.001 ± 0.0085,-0.0015 ± 0.0035,0.007 ± 0.013,-0.04 ± 0.014,-0.053 ± 0.031,0.0125 ± 0.0064,0.017 ± 0.025,-0.0095 ± 0.012
BE3C:HLA-DR,-0.0135 ± 0.021,-0.0175 ± 0.012,-0.024 ± 0.0099,-0.0075 ± 0.013,0.0035 ± 0.015,0.0095 ± 0.018,-0.005 ± 0.0042,-0.016 ± 0.0071,-0.016 ± 0.0057,-0.0155 ± 0.0092,-0.017 ± 0.014,-0.019 ± 0.024,0 ± 0.0099,-0.0025 ± 0.011,0.006 ± 0.017,-0.0235 ± 0.042,-0.0275 ± 0.032,-0.0105 ± 0.012,-0.0125 ± 0.011,-0.01 ± 0.011
BF4T:CCL2/MCP-1,0.0035 ± 0.0064,-0.024 ± 0.028,-0.0335 ± 0.069,0.0045 ± 0.023,0.003 ± 0.013,0.0505 ± 0.076,0.001 ± 0.013,-0.0615 ± 0.023,-0.105 ± 0.03,0.013 ± 0.013,0.0145 ± 0.016,0.039 ± 0.045,-0.003 ± 0.028,-0.007 ± 0.028,0.017 ± 0.028,0.041 ± 0.033,-0.152 ± 0.32,0.006 ± 0.0071,-0.0425 ± 0.0064,-0.0055 ± 0.037
BF4T:CD90,-0.029 ± 0.017,-0.028 ± 0.0085,-0.031 ± 0.0042,-0.0005 ± 0.013,-0.0105 ± 0.0035,0.018 ± 0.0028,-0.0145 ± 0.015,-0.0075 ± 0.0021,-0.013 ± 0.0042,-0.012 ± 0.0028,-0.017,-0.004 ± 0.011,-0.005 ± 0.0042,-0.0055 ± 0.0092,0.0085 ± 0.028,-0.004 ± 0.017,-0.0045 ± 0.0078,-0.0065 ± 0.0078,-0.014 ± 0.0057,0.0065 ± 0.0021
BF4T:CD106/VCAM-1,-0.0125 ± 0.04,-0.0315 ± 0.0035,-0.022 ± 0.057,-0.0095 ± 0.04,-0.0275 ± 0.025,0.0225 ± 0.019,-0.015 ± 0.059,-0.0485 ± 0.03,-0.014 ± 0.017,-0.0015 ± 0.023,0.0045 ± 0.023,0.034 ± 0.025,0.0195 ± 0.0021,0.017 ± 0.0028,0.0275 ± 0.028,-0.007 ± 0.071,-0.091 ± 0.025,-0.007,-0.0355 ± 0.0021,-0.044 ± 0.031
BF4T:CXCL8/IL-8,0.069 ± 0.058,0.0625 ± 0.044,0.0805 ± 0.057,0.0055 ± 0.012,-0.0015 ± 0.0064,0.001 ± 0.021,0.055 ± 0.021,0.028 ± 0.057,0.0235 ± 0.088,-0.018,-0.002 ± 0.0014,0.0175 ± 0.033,0.013 ± 0.02,-0.02 ± 0.028,0.0075 ± 0.0064,0.0395 ± 0.016,0.095 ± 0.0099,0.0175 ± 0.011,0.015 ± 0.0028,0.0355 ± 0.005
BF4T:IL-1alpha,0.006 ± 0.0085,0.0005 ± 0.0092,0.023 ± 0.018,-0.002 ± 0.021,0.0065 ± 0.011,0.012 ± 0.0057,-0.017 ± 0.0042,-0.0035 ± 0.028,-0.003 ± 0.0014,-0.001 ± 0.014,-0.0175 ± 0.0035,0.0075 ± 0.029,0.003 ± 0.0071,-0.0135 ± 0.005,0.013 ± 0.028,-0.002 ± 0.0014,0.0105 ± 0.023,-0.0005 ± 0.0064,-0.0015 ± 0.00071,0.0155 ± 0.021
BF4T:MMP-1,-0.0085 ± 0.00071,-0.0125 ± 0.0078,0.0065 ± 0.013,-0.0055 ± 0.012,-0.0055 ± 0.0035,0.017 ± 0.03,-0.009 ± 0.0042,-0.0005 ± 0.013,-0.01 ± 0.0099,-0.0105 ± 0.005,-0.007 ± 0.0014,0 ± 0.0085,-0.003 ± 0.0057,0.0045 ± 0.0021,0.023 ± 0.027,0.0055 ± 0.019,0.0095 ± 0.0021,-0.0075 ± 0.00071,-0.0115 ± 0.005,0.001 ± 0.0071
BF4T:MMP-3,-0.0095 ± 0.074,-0.0015 ± 0.0035,0.0515 ± 0.025,-0.003 ± 0.014,-0.0035 ± 0.015,0.0205 ± 0.033,-0.03 ± 0.0099,-0.0415 ± 0.012,-0.0105 ± 0.015,-0.016 ± 0.037,-0.0205 ± 0.028,0.011 ± 0.042,0.0155 ± 0.011,0.018 ± 0.024,0.0475 ± 0.03,0.0165 ± 0.018,0.102 ± 0.021,-0.0015 ± 0.0021,-0.0095 ± 0.025,0.026 ± 0.047
BF4T:MMP-9,-0.0015 ± 0.036,-0.0095 ± 0.0078,0.018 ± 0.024,0.0015 ± 0.029,0.004 ± 0.0099,0.025 ± 0.04,-0.026 ± 0.068,-0.051 ± 0.016,0.004 ± 0.017,-0.0045 ± 0.011,-0.0165 ± 0.0035,0.0105 ± 0.035,0.001 ± 0.0071,0.005 ± 0.0071,0.023 ± 0.04,-0.0175 ± 0.018,0.0125 ± 0.069,0.007 ± 0.02,-0.007 ± 0.0099,0.015 ± 0.0028
